EC50 and Ki data for 16 compounds are collected here from ChEMBL document CHEMBL1135007, “Synthesis and pharmacological evaluation of a new class of peroxisome proliferator-activated receptor modulators” (Bioorg Med Chem Lett, 2002).

Structures are written as SMILES.

The target of assay [1] is T1, Peroxisome proliferator-activated receptor alpha (Homo sapiens, UniProt Q07869).
T1 sequence (Q07869 whole entry): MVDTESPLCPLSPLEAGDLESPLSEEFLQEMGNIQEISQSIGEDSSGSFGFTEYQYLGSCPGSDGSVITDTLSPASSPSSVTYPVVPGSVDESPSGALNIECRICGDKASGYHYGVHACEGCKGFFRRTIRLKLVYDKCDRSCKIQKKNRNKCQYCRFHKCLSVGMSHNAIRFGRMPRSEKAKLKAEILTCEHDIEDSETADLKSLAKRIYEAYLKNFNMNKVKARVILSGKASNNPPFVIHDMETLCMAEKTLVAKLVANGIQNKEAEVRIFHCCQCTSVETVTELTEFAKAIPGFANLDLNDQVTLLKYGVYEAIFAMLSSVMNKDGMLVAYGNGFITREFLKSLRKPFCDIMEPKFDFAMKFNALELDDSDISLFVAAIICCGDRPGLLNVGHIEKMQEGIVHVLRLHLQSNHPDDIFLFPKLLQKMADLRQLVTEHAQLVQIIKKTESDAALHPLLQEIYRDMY
Description: Transactivation potency was measured by luciferase activity in Caco- 2/TC7 cells transiently co-transfected for the fusion-protein Gal4-PPAR alpha. Format: functional, cell-based.

The target in assay [2] is T2, Peroxisome proliferator-activated receptor gamma (Homo sapiens, UniProt P37231).
T2 sequence (P37231 whole entry): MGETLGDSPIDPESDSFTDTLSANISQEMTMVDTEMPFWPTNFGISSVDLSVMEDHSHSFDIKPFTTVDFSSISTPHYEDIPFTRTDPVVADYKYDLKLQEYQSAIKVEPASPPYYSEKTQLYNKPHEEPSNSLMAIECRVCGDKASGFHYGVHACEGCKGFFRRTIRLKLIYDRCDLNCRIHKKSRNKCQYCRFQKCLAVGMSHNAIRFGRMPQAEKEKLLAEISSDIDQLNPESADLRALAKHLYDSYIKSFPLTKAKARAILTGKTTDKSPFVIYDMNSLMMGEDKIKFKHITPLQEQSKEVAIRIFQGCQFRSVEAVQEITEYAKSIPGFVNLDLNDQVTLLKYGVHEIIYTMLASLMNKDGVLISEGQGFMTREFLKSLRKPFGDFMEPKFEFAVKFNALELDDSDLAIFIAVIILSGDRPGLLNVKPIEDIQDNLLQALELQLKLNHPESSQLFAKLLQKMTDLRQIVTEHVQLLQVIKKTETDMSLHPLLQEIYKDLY
Description: Ligand binding affinity was determined by displacement of a tritiated tracer by the unlabeled compound to a GST-PPAR fusion protein for Peroxisome proliferator activated receptor gamma containing residues.

Assay [3] addresses T1, Peroxisome proliferator-activated receptor alpha. Description: Ligand binding affinity was determined by displacement of a tritiated tracer by the unlabeled compound to a GST-PPAR fusion protein for Peroxisome proliferator activated receptor alpha containing residues.
The target in assay [4] is T2, Peroxisome proliferator-activated receptor gamma. Description: Transactivation potency was measured by luciferase activity in Caco- 2/TC7 cells transiently co-transfected for the fusion-protein Gal4-PPAR gamma. Format: functional, cell-based.

As to `O=C(Nc1ccc(Oc2ncccn2)cc1C(=O)O)c1ccc(Cl)cc1Cl`, the figures for the EC50 in assay [1] and in assay [4] were above 100000 nM and 1300 nM, respectively. The Ki in assay [2] is 100 nM; in assay [3], above 100000 nM.

For the compound `O=C(Nc1ccc(Oc2ccc([N+](=O)[O-])cn2)cc1C(=O)O)c1ccc(Cl)cc1Cl`, the EC50 in assay [1] was above 100000 nM; in assay [4] it was 400 nM. Moreover, the Ki in assay [2] was 180 nM; in assay [3] it was above 100000 nM.

For `O=C(Nc1ccc(-c2ccsc2)cc1C(=O)O)c1ccc(Cl)cc1Cl`, the EC50 in assay [1] stood at 12000 nM; in assay [4], 700 nM. The Ki is 900 nM in assay [2] and 28000 nM in assay [3].

As for `CCOc1cccc(-c2ccc(NC(=O)c3ccc(Cl)cc3Cl)c(C(=O)O)c2)c1`, the EC50 in assay [1] is above 100000 nM; in assay [4], 300 nM. In addition, the Ki is 1200 nM in assay [2] and above 100000 nM in assay [3].

`Cc1ccc(NC(=O)c2ccc(Cl)cc2Cl)c(C(=O)O)c1`: the EC50 was determined as 9500 nM in assay [1] and 1600 nM in assay [4]. The Ki was 2200 nM in assay [2] and 30000 nM in assay [3].

Consider `O=C(Nc1ccc(-c2ccco2)cc1C(=O)O)c1ccc(Cl)cc1Cl`, for which the EC50 in assay [1] was 10000 nM; in assay [4] it was 1000 nM. Moreover, the Ki came to 500 nM in assay [2] and 22000 nM in assay [3].

Consider `O=C(Nc1ccc(-c2cccc3cccnc23)cc1C(=O)O)c1ccc(Cl)cc1Cl`, for which the values for the EC50 in assay [1] and in assay [4] were above 100000 nM and 300 nM, respectively. The Ki in assay [2] was 700 nM; in assay [3], above 100000 nM.

Consider `O=C(Nc1ccc(Oc2cncc(Cl)n2)cc1C(=O)O)c1ccc(Cl)cc1Cl`, for which the EC50 was above 100000 nM in assay [1] and 450 nM in assay [4]. The Ki in assay [2] was found to be 160 nM; in assay [3], 21000 nM.

For `O=C(Nc1ccc(OCCc2cccs2)cc1C(=O)O)c1ccc(Cl)cc1Cl`, the 50% effective concentration (EC50) in assay [1] is above 100000 nM; in assay [4], 700 nM. The Ki in assay [2] is 1000 nM; in assay [3], above 100000 nM.

For `CSCCOc1ccc(NC(=O)c2ccc(Cl)cc2Cl)c(C(=O)O)c1`, the EC50 was 2500 nM in assay [1] and 600 nM in assay [4]. The Ki worked out at 1600 nM in assay [2] and 19000 nM in assay [3].

Turning to `CCOc1ccc(COc2ccc(NC(=O)c3ccc(Cl)cc3Cl)c(C(=O)O)c2)cc1`, the EC50 in assay [1] is above 100000 nM; in assay [4], 700 nM. The Ki in assay [2] is 3600 nM; in assay [3], above 100000 nM.

As to `O=C(Nc1ccc(OCc2cccs2)cc1C(=O)O)c1ccc(Cl)cc1Cl`, the EC50 in assay [1] is 5000 nM; in assay [4], 300 nM. In addition, the Ki in assay [2] amounted to 400 nM; in assay [3] it was 25000 nM.

As to `O=C(O)c1cccc(-c2ccc(NC(=O)c3ccc(Cl)cc3Cl)c(C(=O)O)c2)c1`, the concentration for a half-maximal effect (EC50) in assay [1] and in assay [4] was above 100000 nM each time. Further, the figures for the Ki in assay [2] and in assay [3] were 1400 nM and 67000 nM, respectively.

As for `O=C(Nc1ccc(Oc2ncccc2[N+](=O)[O-])cc1C(=O)O)c1ccc(Cl)cc1Cl`, the values for the EC50 in assay [1] and in assay [4] were above 100000 nM and 400 nM, respectively. Further, the values for the Ki in assay [2] and in assay [3] were 170 nM and above 100000 nM, respectively.

Turning to `O=C(Nc1ccc(OCCc2ccsc2)cc1C(=O)O)c1ccc(Cl)cc1Cl`, the EC50 in assay [1] is 3800 nM; in assay [4], 800 nM. The Ki in assay [2] was 600 nM; in assay [3], 20000 nM.

With `O=C(Nc1ccc(OCCc2ccccn2)cc1C(=O)O)c1ccc(Cl)cc1Cl`, the figures for the Ki in assay [2] and in assay [3] were 1500 nM and above 100000 nM, respectively. In assay [4], this compound showed a concentration for a half-maximal effect (EC50) of 3200 nM.
